US9670204B2, “Compounds and pharmaceutical compositions thereof for the treatment of inflammatory disorders” (Galapagos NV, priority 2013, dated 2017)

Assays:
[1] = target: T1, hENPP2 (UniProtKB/SwissProt Q13822) (Homo sapiens (Human), UniProt Q13822); assay: hENPP2 biochemical assay, LPC as substrate; details: LPC (palmitoyl 16:0) as substrate
Procedure, shortened: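 Human ENPP2 in 50 mM Tris-HCl pH 8.5, 500 mM NaCl, 5 mM KCl, 10 mM CaCl2, 0.1% fatty-acid-free BSA, reacted 30 min at 37 °C with LPC 16:0 (150 µM solution added 1:1). Released choline measured via choline oxidase/peroxidase/TOOS/4-aminoantipyrine quinoneimine dye at 555 nm; IC50 reported.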

[2] = target: T1, hENPP2; assay: fluorescent hENPP2 biochemical assay, FS-3 as substrate; details: read-out: FS3-IC50
Procedure: Compound IC50 values are determined in a fluorescent hENPP2 (UniProtKB/SwissProt Sequence ref Q13822) biochemical assay using the fluorogenic autotaxin substrate FS-3 as substrate. FS-3 is a doubly labeled analog of LPC wherein the fluorophore is quenched through intramolecular energy transfer. Without hENPP2, the emission of the probe is quenched. If the substrate is hydrolyzed by hENPP2, the emission of the probe is not quenched anymore resulting in a fluorescence increase.
The enzyme is diluted in 50 mM Tris-HCl pH 8.0, 250 mM NaCl, 5 mM KCl, 1 mM MgCl2, 1 mM CaCl2, 0.1% fatty acid free BSA in a total volume of 20 μL. Enzyme mixture is added to compounds and the resulting mixture is incubated for 30 min at room temperature under shaking. The reaction is started by the addition of 20 μL of 0.75 μM FS-3 diluted in the same buffer as described above and the mixture is incubated at 30° C. for 30 min. Fluorescence is read on the Envision (Excitation 485 nm, emission 520 nm).

| SMILES | IC50 [1] | IC50 [2] |
| --- | --- | --- |
| CCc1nc2ccc(C3CCN(S(C)(=O)=O)CC3)cn2c1N(C)c1nc(-c2ccc(OC)cc2)cs1 [Compound 82, N-(2-ethyl-6-(1-(methylsulfonyl)piperidin-4-yl)imidazo [1,2-a]pyridin-3-yl)-4-(4-methoxyphenyl)-N-methylthiazol-2-amine] | > 1000 nM | 0.01 to 100 nM |
| CCc1nc2ccc(C3CCN(S(=O)(=O)CCCCl)CC3)cn2c1N(C)c1nc(-c2ccc(F)cc2)cs1 [Compound 86, N-(6-(1-(3-chloropropylsulfonyl)piperidin-4-yl)-2-ethylimidazo[1,2-a]pyridin-3-yl)-4-(4-fluorophenyl)-N-methylthiazol-2-amine] | > 1000 nM | 0.01 to 100 nM |
| CCc1nc2ccc(C3CCN(S(=O)(=O)CCCN4CCCC4)CC3)cn2c1N(C)c1nc(-c2ccc(F)cc2)cs1 [Compound 89, {2-Ethyl-6-[1-(3-pyrrolidin-1-yl-propane-1-sulfonyl)-piperidin-4-yl]-imidazo[1,2-a]pyridin-3-yl}-[4-(4-fluoro-phenyl)-thiazol-2-yl]-methyl-amine] | 100 to 500 nM | 0.01 to 100 nM |
| CCc1nc2ccc(C3CCN(S(=O)(=O)CCCN)CC3)cn2c1N(C)c1nc(-c2ccc(F)cc2)cs1 [Compound 90, N-(6-(1-(3-aminopropylsulfonyl)piperidin-4-yl)-2-ethylimidazo[1,2-a]pyridin-3-yl)-4-(4-fluorophenyl)-N-methylthiazol-2-amine] | 500 to 1000 nM | 0.01 to 100 nM |
| CCc1nc2ccc(C3CCN(S(N)(=O)=O)CC3)cn2c1N(C)c1nc(-c2ccc(F)cc2)cs1 [Compound 92, 4-(2-ethyl-3-((4-(4-fluorophenyl)thiazol-2-yl)(methyl)amino)imidazo[1,2-a]pyridin-6-yl)piperidine-1-sulfonamide] | > 1000 nM | 0.01 to 100 nM |
| CCc1nc2ccc(C3CCN(S(=O)(=O)CCCOC(C)=O)CC3)cn2c1N(C)c1nc(-c2ccc(F)cc2)cs1 [Compound 93, 3-(4-(2-ethyl-3-((4-(4-fluorophenyl)thiazol-2-yl)(methyl)amino)imidazo[1,2-a]pyridin-6-yl)piperidin-1-ylsulfonyl)propyl acetate] | 100 to 500 nM | 0.01 to 100 nM |
| CCc1nc2ccc(C3CCN(S(C)(=O)=O)CC3)cn2c1N(C)c1nc(-c2ccc(F)cc2Cl)cs1 [Compound 99, 4-(2-chloro-4-fluorophenyl)-N-(2-ethyl-6-(1-(methylsulfonyl)piperidin-4-yl)imidazo [1,2-a]pyridin-3-yl)-N-methylthiazol-2-amine] | > 1000 nM | 0.01 to 100 nM |
| CCc1nc2ccc(C3CCN(S(C)(=O)=O)CC3)cn2c1N(C)c1nc(-c2ccc(F)cc2F)cs1 [Compound 100, 4-(2,4-difluorophenyl)-N-(2-ethyl-6-(1-(methylsulfonyl)piperidin-4-yl)imidazo [1,2-a]pyridin-3-yl)-N-methylthiazol-2-amine] | > 1000 nM | 0.01 to 100 nM |
| CCc1nc2ccc(C3CCN(S(C)(=O)=O)CC3)cn2c1N(C)c1nc(-c2ccc(F)cc2)c(C)s1 [Compound 101, N-(2-ethyl-6-(1-(methylsulfonyl)piperidin-4-yl)imidazo [1,2-a]pyridin-3-yl)-4-(4-fluorophenyl)-N,5-dimethylthiazol-2-amine] | > 1000 nM | 0.01 to 100 nM |
| [2H]c1sc(N(c2c(CC)nc3ccc(C4CCN(S(C)(=O)=O)CC4)cn23)C([2H])([2H])[2H])nc1-c1ccc(F)cc1 [Compound 103, 4-(4-fluorophenyl)-N-(2-ethyl-6-(1-(methylsulfonyl)piperidin-4-yl)imidazo [1,2-a]pyridin-3-yl)-N-(d3-methyl)-(d-thiazol-2)-amine] | 100 to 500 nM | 0.01 to 100 nM |
| CCc1nc2ccc(C3CCN(S(C)(=O)=O)CC3)cn2c1N(C)c1nc(-c2ccc(F)cc2)c(C(C)=O)s1 [Compound 105, 1-(2-((2-ethyl-6-(1-(methylsulfonyl)piperidin-4-yl)imidazo[1,2-a]pyridin-3-yl)(methyl)amino)-4-(4-fluorophenyl)thiazol-5-yl)ethanone] | 100 to 500 nM | 0.01 to 100 nM |
| CCc1nc2ccc(C3CCN(S(C)(=O)=O)CC3)cn2c1N(C)c1nc(-c2ccc(F)cc2NC(C)=O)cs1 [Compound 106, N-(2-(2-((2-ethyl-6-(1-(methylsulfonyl)piperidin-4-yl)imidazo[1,2-a]pyridin-3-yl)(methyl)amino)thiazol-4-yl)-5-fluorophenyl)acetamide] | > 1000 nM | 0.01 to 100 nM |
| CCOC(=O)CN1CC=C(c2ccc3nc(CC)c(N(C)c4nc(-c5ccc(F)cc5)cs4)n3c2)CC1 [Compound 108, ethyl 2-(4-(2-ethyl-3-((4-(4-fluorophenyl)thiazol-2-yl)(methyl)amino)imidazo[1,2-a]pyridin-6-yl)-5,6-dihydropyridin-1(2H)-yl)acetate] | > 1000 nM | 0.01 to 100 nM |
| CCOC(=O)CN1CCC(c2ccc3nc(CC)c(N(C)c4nc(-c5ccc(F)cc5)cs4)n3c2)CC1 [Compound 109, ethyl 2-(4-(2-ethyl-3-((4-(4-fluorophenyl)thiazol-2-yl)(methyl)amino)imidazo[1,2-a]pyridin-6-yl)piperidin-1-yl)acetate] | 100 to 500 nM | 0.01 to 100 nM |
| CCc1nc2ccc(C3CCN(CC(=O)N4CC[C@H](C#N)C4)CC3)cn2c1N(C)c1nc(-c2ccc(F)cc2)cs1 [Compound 116, (S)-1-(2-(4-(2-ethyl-3-((4-(4-fluorophenyl)thiazol-2-yl)(methyl)amino)imidazol[1,2-a]pyridin-6-yl)piperidin-1-yl)acetoyl)pyrrolidine-3-carbonitrile] | 100 to 500 nM | 0.01 to 100 nM |
| CCc1nc2ccc(C3CCN(CC4COC(=O)O4)CC3)cn2c1N(C)c1nc(-c2ccc(F)cc2)cs1 (stereo not drawn) [Compound 118, 4-((4-(2-ethyl-3-((4-(4-fluorophenyl)thiazol-2-yl)(methyl)amino)imidazo[1,2-a]pyridin-6-yl)piperidin-1-yl)methyl)-1,3-dioxolan-2-one] | 100 to 500 nM | 0.01 to 100 nM |
| CCc1nc2ccc(C3CCN(CC(=O)N4CC(F)(F)C4)CC3)cn2c1N(C)c1nc(-c2ccc(F)cc2)cs1 [Compound 124, 1-(3,3-difluoroazetidin-1-yl)-2-(4-(2-ethyl-3-((4-(4-fluorophenyl)thiazol-2-yl)(methyl)amino)imidazo[1,2-a]pyridin-6-yl)piperidin-1-yl)ethanone] | > 1000 nM | 0.01 to 100 nM |
| CCc1nc2ccc(C3CCN(CC(N)=O)CC3)cn2c1N(C)c1nc(-c2ccc(F)cc2)cs1 [Compound 125, 2-(4-(2-ethyl-3-((4-(4-fluorophenyl)thiazol-2-yl)(methyl)amino)imidazo[1,2-a]pyridin-6-yl)piperidin-1-yl)acetamide] | > 1000 nM | 0.01 to 100 nM |
| CCc1nc2ccc(C3CCN(C(=O)CN4CCCC4)CC3)cn2c1N(C)c1nc(-c2ccc(F)cc2)cs1 [Compound 126, 1-(4-(2-ethyl-3-((4-(4-fluorophenyl)thiazol-2-yl)(methyl)amino)imidazo[1,2-a]pyridin-6-yl)piperidin-1-yl)-2-(pyrrolidin-1-yl) ethanone] | 100 to 500 nM | 0.01 to 100 nM |
| CCc1nc2ccc(C3CCN(C(=O)CN4CC(O)C4)CC3)cn2c1N(C)c1nc(-c2ccc(F)cc2)cs1 [Compound 128, 1-(4-(2-ethyl-3-((4-(4-fluorophenyl)thiazol-2-yl)(methyl)amino)imidazo[1,2-a]pyridin-6-yl)piperidin-1-yl)-2-(3-hydroxyazetidin-1-yl)ethanone] | 100 to 500 nM | 0.01 to 100 nM |
| CCc1nc2ccc(C3CCN(C(=O)CN4CC(F)C4)CC3)cn2c1N(C)c1nc(-c2ccc(F)cc2)cs1 [Compound 133, 1-(4-(2-ethyl-3-((4-(4-fluorophenyl)thiazol-2-yl)(methyl)amino)imidazo[1,2-a]pyridin-6-yl)piperidin-1-yl)-2-(3-fluoroazetidin-1-yl)ethanone] | 100 to 500 nM | 0.01 to 100 nM |
| CCc1nc2ccc(C3CCN(C4CN(C(C)=O)C4)CC3)cn2c1N(C)c1nc(-c2ccc(F)cc2)cs1 [Compound 134, 1-(3-(4-(2-ethyl-3-((4-(4-fluorophenyl)thiazol-2-yl)(methyl)amino)imidazo[1,2-a]pyridin-6-yl)piperidin-1-yl)azetidin-1-yl)ethanone] | 500 to 1000 nM | 0.01 to 100 nM |
| CCc1nc2ccc(C3CCN(S(C)(=O)=O)CC3)cn2c1N(C)c1nc(-c2ccc(F)cc2)c(C(N)=O)s1 [Compound 137, 2-((2-ethyl-6-(1-(methylsulfonyl)piperidin-4-yl)imidazo[1,2-a]pyridin-3-yl)(methyl)amino)-4-(4-fluorophenyl)thiazole-5-carboxamide] | > 1000 nM | 0.01 to 100 nM |
| CCc1nc2ccc(C3CCN(CC(=O)N(C)C)CC3)cn2c1N(C)c1nc(-c2ccc(F)cc2)c(CO)s1 [Compound 157, 2-(4-(2-ethyl-3-((4-(4-fluorophenyl)-5-(hydroxymethyl)thiazol-2-yl)(methyl)amino)imidazo[1,2-a]pyridin-6-yl)piperidin-1-yl)-N,N-dimethylacetamide] | > 1000 nM | 0.01 to 100 nM |
